The subject of assay [1] is BT-20 cells. Nature of the assay: MTT cytotoxicity assay, BT-20 cells, 72 h. Particulars: MTT test, 72 h exposure. The class given is cell-based, human. How it is done: (§1) The cytotoxic activity of the samples was screened against the human triple-negative breast cancer BT-20 (HTB-19), HCC1395 (ATCC®CRL-2324), MDA-MB-231 (CRM-HTB-26), and HEK293 (CRL-1573) embryonic kidney cell lines. The cells were cultured in Dulbecco’s modified eagle medium (DMEM) supplemented with 4.5 g/L glutamine and D-glucose, 10% fetal bovine serum (FBS), and a 1% penicillin/streptomycin mixture and incubated at 37 °C under a 5% CO2 humidified atmosphere. Cell passage and seeding performed after washing the adherent cells with PBS and detaching them using a Trypsin solution. The cells were detached and resuspended at 160,000 cells/mL and added into each well of a transparent 384-well plate in the final volume of 25 µL/well (4000 cells per well). The cells were maintained in DMEM containing 10% FBS at 37°C and 5% CO2 overnight. The next day, the 384-well plate was examined under an inverted microscope to identify cell seeding errors, growth characteristics, morphology and equal distribution. Then, the medium in each well was removed using a washer–dispenser (Biotek FX, Beersel, Belgium) and replaced by 40 μL of the fresh medium containing the indicated concentrations of compounds and incubated for 72 h.
(§2) The 250 µg/mL concentrations of methanol extract and 20 mM concentrations of individual compounds were prepared as a stock solution in DMSO (Sigma-Aldrich Chemie GmbH, Taufkirchen, Germany) prior to use. A complete medium was used to prepare this solution. The samples were further serially diluted in DMSO into eleven different concentrations and then added to the complete cell culture medium so as to attain the final concentrations ranging from 250 to 8.6 µg/mL (250, 178.6, 127.6, 91.1, 65.1, 46.5, 33.2, 23.7, 16.9, 12.1, and 8.6 µg/mL) for the extract and 20 to 1.45 µM (20, 15.4, 11.8, 9.1, 7.0, 5.4, 4.1, 3.2, 2.5, 1.9, and 1.5 µM) for the individual compounds in 384-well plates, which were added in four replicates. A 40 µL sample containing medium from each concentration was dispensed into each well. The concentration of the solvent, DMSO, was equal in all the wells and was fixed at 0.05% in the medium. As a negative control, cells were treated with DMEM containing DMSO. Docetaxel (concentration of 0.02 µM to 6.9 nM) is used as a positive control.
(§3) The cytotoxicity of the samples was determined in triplicate using the 3-(4,5-dimethylthiazol-2-yl)-2,5-diphenyltetrazolium bromide (MTT) cell viability assay. The next day, the medium of the 384-well plates treated with samples was removed. Then, 25 µL of MTT solution (0.5 mg MTT in 1 mL PBS) was added to each well and incubated at 37 °C for 2 h. After incubation with MTT for 2 h, the solution was removed from the wells by the washer–dispenser, and the formed formazan crystals were then dissolved in 25 µL of DMSO. After a further 10 min of incubation at room temperature, the samples were mixed briefly, and the absorbance was detected at 510 nm with a Tecan Infinite 200 Pro Reader (Tecan Group Ltd., Männedorf, Switzerland). The cell viability rate (%) was calculated by the following formula:Cell viability rate (%) = ((OD of treated cells − OD of media (blank)/(OD of control cells − OD of media (blank)) × 100%
(§4) The experiments were carried out in four replicates. Continuous variables were presented as the mean ± SD. […] The level of significance was set at p < 0.05. The IC50 (inhibitory concentration which caused 50% inhibition) was estimated using the linear regression method of plots of the percent of cell viability against the concentration of the tested compounds using GraphPad Prism 8.0.1 software (San Diego, CA, USA).

The subject of assay [2] is MDA-MB-231 cells. Nature of the assay: MTT cytotoxicity assay, MDA-MB-231 cells, 72 h. Particulars: MTT test, 72 h exposure. The assay is classed as cell-based, human. How it is done: as §1, §2, §3, §4
For assay [3], the system named is HCC1395 cells. Nature of the assay: MTT cytotoxicity assay, HCC1395 cells, 72 h. The class given is cell-based, human. The conditions noted are these: MTT test, 72 h exposure. How it is done:
as §1, §2, §3, §4

Assay [4] relates to HEK293 cells. Nature of the assay: MTT cytotoxicity assay, HEK293 embryonic kidney cells, 72 h. The assay is classed as cell-based, human. The conditions noted are these: MTT test, 72 h exposure.
The subject of assay [5] is Wnt signaling. Nature of the assay: TOPFlash assay (Wnt3a-stimulated BT-20 reporter cells). The assay is classed as cell-based, human. The conditions noted are these: BT-20 cells, 20 µM (extract 20 μg/mL). How it is done:
The TOPFlash assay was performed as described. TNBC BT-20 cell line stably transfected with TopFlash reporter plasmid was seeded at 450,000 cells/mL in a white opaque 384-well plate in the final volume of 25 μL. The cells were maintained and incubated at 37 °C with 5% CO2 overnight for attachment. Subsequently, they were transfected by a plasmid encoding Renilla luciferase under the CMV promoter using 12 μg/mL of DNA and 40 μL/mL XtremeGENE 9 reagent as described in the manufacturer’s protocol. The next day, the medium in each well was replaced with a 20 μL fresh medium containing Wnt3a (2.5 μg/mL) and compound dilution. Compound dilutions were prepared by serial dilution in DMSO and diluted with the amount of medium necessary to obtain their final concentrations indicated on the figures and tables and maintain a concentration of DMSO of 0.05% in all assay points. Wnt3a was added after 1 h of preincubation with compound dilution. After overnight incubation, the supernatant in each well was removed by the washer–dispenser, and the luciferase activity was measured as described. […] Next, the luciferase activity of the firefly and Renilla luciferases was detected sequentially in individual wells of a 384-well plate through the injection of corresponding measurement solutions in Tecan Infinite 200 Pro multifunctional plate reader with an injection module.

Assay [6] has as its system MCF-7, MDA-MB-231, and MDA-MB-468 cells. Also noted: method as in PMID 33192507. The conditions noted are these: breast cancer cells; cited from earlier work.
Setting [7] is: Homo sapiens, BT-20, average ± SEM, N = 3.
Setting [8] is: Homo sapiens, MDA-MB-231, average ± SEM, N = 3.
Where [9] appears, read: Homo sapiens, HCC1395, average ± SEM, N = 3.
Where [10] appears, read: Homo sapiens, HEK293, average ± SEM, N = 3.

As to `C[C@H]([C@H](O)CCC(C)(C)O)[C@H]1CC[C@@]2(O)C3=CC(=O)[C@@H]4C[C@@H](O)[C@@H](O)C[C@]4(C)[C@H]3CC[C@]12C` [Compound 73, Ecdysone], the IC50 in assay [1] (setting [7]), in assay [2] (setting [8]), in assay [3] (setting [9]) and in assay [4] (setting [10]) was more than 20 µM in each case.

Consider `CC(=O)OC(C)(C)CC[C@@H](O)[C@](C)(O)[C@H]1CC[C@@]2(O)C3=CC(=O)[C@@H]4C[C@@H](O)[C@@H](O)C[C@]4(C)[C@H]3CC[C@]12C` [Compound 74, Viticosterone E], for which the IC50 in assay [1] (setting [7]), in assay [2] (setting [8]), in assay [3] (setting [9]) and in assay [4] (setting [10]) was more than 20 µM each time.

For `CC1(C)CC[C@]2(C(=O)O)CC[C@]3(C)C(=CC[C@@H]4[C@@]5(C)CC[C@H](O)C(C)(C)[C@@H]5CC[C@]43C)[C@@H]2C1` [Compound 71, Oleanolic acid], the IC50 in assay [1] (setting [7]), in assay [2] (setting [8]), in assay [3] (setting [9]) and in assay [4] (setting [10]) was more than 20 µM throughout.

With `CC(C)(O)CC[C@@H](O)[C@](C)(O)[C@H]1CC[C@@]2(O)C3=CC(=O)[C@@H]4C[C@@H](O)CC[C@]4(C)[C@H]3CC[C@]12C` [Compound 58, 2-Deoxy-20-hydroxyecdysone], the half-inhibitory concentration (IC50) in assay [1] (setting [7]) turned out to be 0.12 ± 0.006 µM; in assay [2] (setting [8]), 0.53 ± 0.14 µM; in assay [3] (setting [9]), 0.21 ± 0.01 µM; in assay [4] (setting [10]), 0.27 ± 0.01 µM. In addition, the “Inhibition of Wnt signaling” value in assay [5] is listed as “not a Wnt signaling inhibitor”.

With `C[C@H]([C@H](O)CCC(C)(C)O)[C@H]1CC[C@@]2(O)C3=CC(=O)[C@@H]4C[C@@H](O)CC[C@]4(C)[C@H]3CC[C@]12C` [Compound 72, 2-Deoxyecdysone], the concentration for half-maximal inhibition (IC50) in assay [1] (setting [7]), in assay [2] (setting [8]), in assay [3] (setting [9]) and in assay [4] (setting [10]) was more than 20 µM throughout.

Take `O=c1cc(-c2ccc(O)cc2)oc2c([C@@H]3OC[C@H](O)[C@H](O)[C@H]3O)c(O)c([C@@H]3O[C@H](CO)[C@@H](O)[C@H](O)[C@H]3O)c(O)c12` [Compound 29, Schaftoside (apigenin 6-C-β-D -glucoside-8-C-α-L-arabinoside)]: the IC50 in assay [1] (setting [7]), in assay [2] (setting [8]), in assay [3] (setting [9]) and in assay [4] (setting [10]) was more than 20 µM each time.

As for `C[C@@H]1C(=O)O[C@H](C)[C@H]1C[C@@H](O)[C@](C)(O)[C@H]1CC[C@@]2(O)C3=CC(=O)[C@@H]4C[C@@H](O)[C@@H](O)C[C@]4(C)[C@H]3CC[C@]12C` [Compound 76, Cyasterone], the IC50 in assay [1] (setting [7]), in assay [2] (setting [8]), in assay [3] (setting [9]) and in assay [4] (setting [10]) was more than 20 µM each time.

For the compound `CC(C)(O)CC[C@@H](O)[C@](C)(O)[C@H]1CC[C@@]2(O)C3=CC(=O)[C@@H]4C[C@@H](O)[C@@H](O)C[C@]4(C)[C@H]3CC[C@]12C` [Compound 50, 20-Hydroxyecdysone], the half-maximal inhibitory concentration (IC50) in assay [1] (setting [7]), in assay [2] (setting [8]), in assay [3] (setting [9]) and in assay [4] (setting [10]) was more than 20 µM in each case. Also, in assay [6], the “Concentration range in which autophagy induction / synergistic effect with doxorubicin was observed” value is 250 to 750 µM.

For `CC(C)(O)CC[C@@H](O)[C@](C)(O)[C@H]1CC[C@@]2(O)C3=CC(=O)[C@@H]4C[C@@H](O)[C@@H](O)C[C@]4(C)[C@H]3[C@H](O)C[C@]12C` [Compound 75, Turkesterone], the IC50 in assay [1] (setting [7]), in assay [2] (setting [8]), in assay [3] (setting [9]) and in assay [4] (setting [10]) was more than 20 µM throughout.

`CC(=O)O[C@@]12CO[C@@H]1C[C@H](O)[C@@]1(C)C(=O)[C@H](O)C3=C(C)[C@@H](OC(=O)[C@H](O)[C@@H](NC(=O)OC(C)(C)C)c4ccccc4)C[C@@](O)([C@@H](OC(=O)c4ccccc4)[C@H]21)C3(C)C` [Docetaxel, reference compound]: the IC50 in assay [1] (Homo sapiens, BT-20, positive control) came to 0.0044 ± 8e-07 µM; in assay [2] (Homo sapiens, MDA-MB-231, positive control), 0.0177 ± 2.9e-06 µM; in assay [3] (Homo sapiens, HCC1395, positive control) it was 0.0065 ± 7e-07 µM; in assay [4] (Homo sapiens, HEK293, positive control), 0.00447 ± 1.3e-06 µM.

As to `COc1cc(/C=C/C(=O)O)ccc1O` [Compound 19, Ferulic acid], the IC50 in assay [1] (average ± SEM, N = 3) is more than 20 µM; in assay [2] (average ± SEM, N = 3), more than 20 µM; in assay [3] (average ± SEM, N = 3) it was more than 20 µM; in assay [4] (average ± SEM, N = 3) it was more than 20 µM.

With `C[C@@H]1O[C@@H](OC[C@H]2O[C@@H](Oc3c(-c4ccc(O)c(O)c4)oc4cc(O)cc(O)c4c3=O)[C@H](O)[C@@H](O)[C@@H]2O)[C@H](O)[C@H](O)[C@H]1O` [Compound 41, Rutin (quercetin-3-O-rutinoside)], the IC50 in assay [1] (setting [7]), in assay [2] (setting [8]), in assay [3] (setting [9]) and in assay [4] (setting [10]) was more than 20 µM throughout.

Consider `O=C(O)[C@]1(O)C[C@@H](O)[C@@H](O)[C@H](O)C1` [Compound 12, Quinic acid], for which the IC50 in assay [1] (setting [7]), in assay [2] (setting [8]), in assay [3] (setting [9]) and in assay [4] (setting [10]) was more than 20 µM in each case.

Turning to `O=C(O)C=Cc1ccc(O)cc1` [Compound 21, p-Coumaric acid], the IC50 in assay [1] (setting [7]), in assay [2] (setting [8]), in assay [3] (setting [9]) and in assay [4] (setting [10]) was more than 20 µM in each case.

Consider `O=c1cc(-c2ccc(O)cc2)oc2cc(O[C@@H]3O[C@H](CO)[C@@H](O)[C@H](O)[C@H]3O)c([C@@H]3O[C@H](CO)[C@@H](O)[C@H](O)[C@H]3O)c(O)c12` [Compound 38, Saponarin (isovitexin 7-O-β-D-glucoside)], for which the IC50 in assay [1] (average ± SEM, N = 3) was more than 20 µM; in assay [2] (average ± SEM, N = 3), more than 20 µM; in assay [3] (average ± SEM, N = 3), more than 20 µM; in assay [4] (average ± SEM, N = 3) it was more than 20 µM.

Values taken from PMC11505650, “Chemical and Biological Characterization of Metabolites from Silene viridiflora Using Mass Spectrometric and Cell-Based Assays” (Biomolecules, 2024).
